From patent publication US11685741B2, “Fluorescent probes” (University of Massachusetts, priority 2017, dated 2023)

Assays:
[1] = test system: human fibroblast cells (ws1); test: Confocal imaging of Fe3+ with Rh-PK in ws1 cells; assay type: cell-based
Protocol: Human SH-SY5Y neuroblastoma cells and primary fibroblast ws1 cells were obtained from ATCC (American Type Culture Collection). Cells were maintained in a 1:1 mixture of Eagle's Minimal Essential medium (ATCC) and Ham's F12 medium (ATCC) supplemented with 10% fetal bovine serum (FBS, ATCC) without antibiotics and incubated at 37° C. in a humidified 5% CO2 atmosphere. The cells were routinely sub-cultured using 0.05% trypsin-EDTA solution (ATCC). The cells were seeded onto 2-chamber slides for 48 h at 5×10^4 cells/chamber and grown until each chamber was 20-30% confluent. A stock solution of Rh-PK ([…] in […]) was diluted to a concentration of […] in culture medium without FBS. […] The fluorescence responses of the sensor in living cells were measured under a Zeiss LSM 710 laser scanning confocal microscope. […] The REUSE function controlled by Zeiss software was applied to guarantee that all spectra were recorded under the same instrumental conditions.
The ability of Rh-PK to track Fe^3+ in live human fibroblast cells (ws1) was tested via a laser scanning confocal microscope (Zeiss LSM 710). […] Turn on fluorescence was observed, which is likely being triggered by endogenous labile Fe^3+. […]
FIG. 17A to FIG. 17C show the distribution of exchangeable Fe^3+ pools in live fibroblast cells (ws1). […] FIG. 17A is the Rh-PK-Fe3+ fluorescence intensity collected at 547-703 nm (red). […]

[2] = Binding studies of sensor with Fe3+ (Job's plot, titration, EDTA reversibility)
Protocol: Job's method and UV-vis spectra were applied to study the binding stoichiometry between Rh-PK and Fe^3+ and monitored by the absorbance at 555 nm. […] The binding constant of this complex was calculated following a method reported previously (G. E. Tumambac, et al., Tetrahedron 2004, 60, 11293-11297), using absorption values at […] by the equations described below, and was determined to be 1.54×10^7 […].
The equations below was used to calculate the binding constants with stoichiometry of 1:1. L+S↔LS where L=sensor, S=Fe3+ and LS=sensor-Fe^3+ complex. The apparent binding constant is given by
[formula] Fe is the fraction of L that formed a complex, [LS]e is concentration at equilibrium, [L]0 is the initial concentration. Au, Am, and Ac are the absorbances of solutions of L (before any Fe^3+ was added), during the titration and at saturation, respectively. The concentration of free Fe^3+ at equilibrium, [S]e, is found with the following identity. [S]e=[S]o−[LS]e=[S]o−Fc[L]o The apparent binding constant K can then be calculated from
Reversibility experiments were carried out by adding EDTA to the complex in ACN/Tris-HCl buffer (10 mM, pH 7.3, v/v 3:1). […]
The stoichiometry of RhHPA-Fe^3+ was measured using Job's plot and mole ratio plots methods. B. Valeur, Molecular Fluorescence: Principles and Applications, Wiley-VCH. […] To determine the binding constant of chemosensor, a fluorescence titration of different amounts of Fe^3+ into the acetonitrile solution of sensor was carried out. […] The determination of the binding constant of RhHPA was calculated using the following equation: F−Fmin=[…](Fmax−Fmin)/Kd where F is the observed fluorescence, Fmax is the maximum fluorescence for the RhHPA-Fe^3+ complex at concentration of the equal reacted between sensor and metal cation, Fmin is the fluorescence intensity for occurring RhHPA-Fe^3+.
Absorption enhancement observation at 558 nm was plotted against the molar value of the [Fe^3+]/[Fe^3+]+RhHPA and [Fe^3+]/RhHPA. […] Binding constant of fluorescent sensor “RhHPA” was calculated and it was found as K=1.27×10^7 M^−1. […]

## CCN(CC)c1ccc2c(c1)Oc1cc(N(CC)CC)ccc1C21c2ccccc2C(=O)N1CC/N=C(\C)c1cccc(C(C)=O)n1 [Rh-PK, (E)-2-(2-((1-(6-acetylpyridin-2-yl)ethylidene)amino)ethyl)-3′,6′-bis(diethylamino)spiro[isoindoline-1,9′-xanthen]-3-one]
[1]; 10 μM Rh-PK, cells loaded with 50 μM Fe^3+
  fluorescence of Fe^3+-loaded cells versus before loading: brighter and more widely distributed fluorescence signals
[1]; SIH 100 μM overnight, then Rh-PK
  fluorescence response after Fe^3+ pre-depletion: weaker fluorescence response
[2]; 1:1 Fe^3+-Rh-PK complex, from absorption titration
  binding constant: 1.54e+07 M⁻¹
[2]; 1:1 sensor-Fe^3+ complex, ACN/Tris-HCl buffer pH 7.3
  apparent binding constant: 1.54e+07 M⁻¹
